Key:
[1] = system: LOLRI; experiment: Pre-emergence action against LOLRI, 1280 g/ha; format: in vivo, Lolium rigidum; conditions: visual scoring after about 3 weeks vs untreated controls, 100% = plants have died, 0% = like control plants
Summary of the method: (§1)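 Soil-surface application after sowing, before emergence: WP or EC formulations in water with 0.5% additive, 600 litres per hectare, onto sandy loam pots. Damage rated visually in % relative to untreated plants after roughly 3 weeks in a greenhouse.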

[2] = system: PHBPU; experiment: Pre-emergence action at 320 g/ha against PHBPU; format: in vivo; conditions: visual scoring after about 3 weeks vs untreated controls
Summary of the method: (§2)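 Compounds were sprayed onto soil over sown seeds as emulsions or suspensions with 0.5% additive at a water rate of 600 l/ha. After about 3 weeks in the greenhouse, effect was rated visually as percent (100% = died).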

[3] = system: MATIN; experiment: Pre-emergence action at 320 g/ha against MATIN; format: in vivo, Tripleurospermum inodorum (Matricaria inodora); conditions: visual scoring after about 3 weeks vs untreated controls
Summary of the method: as §2

[4] = system: SETVI; experiment: Pre-emergence action against SETVI, 1280 g/ha; format: in vivo, Setaria viridis; conditions: visual scoring after about 3 weeks vs untreated controls, 100% = plants have died, 0% = like control plants
Summary of the method: as §1

[5] = system: AMARE; experiment: Pre-emergence action at 320 g/ha against AMARE; format: in vivo, Amaranthus retroflexus; conditions: visual scoring after about 3 weeks vs untreated controls
Summary of the method: as §2

[6] = system: STEME; experiment: Pre-emergence action against STEME, 1280 g/ha; format: in vivo, Stellaria media; conditions: scored visually after about 3 weeks vs untreated controls (100% = plants have died)
Summary of the method: as §1

[7] = system: SETVI; experiment: Pre-emergence action at 320 g/ha against SETVI; format: in vivo, Setaria viridis; conditions: visual scoring after about 3 weeks vs untreated controls
Summary of the method: as §2

[8] = system: DIGSA; experiment: Pre-emergence action against DIGSA, 1280 g/ha; format: in vivo, Digitaria sanguinalis; conditions: visual scoring after about 3 weeks vs untreated controls, 100% = plants have died, 0% = like control plants
Summary of the method: as §1

[9] = system: AVEFA; experiment: Pre-emergence action at 320 g/ha against AVEFA; format: in vivo; conditions: visual scoring after about 3 weeks vs untreated controls
Summary of the method: as §2

[10] = system: KCHSC; experiment: Post-emergence action against KCHSC, 1.28 kg/ha; format: in vivo, Bassia scoparia; conditions: dosage 1280 g/ha, visual rating about 3 weeks after treatment vs untreated controls (100% = plants died)
Summary of the method: (§3)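 Greenhouse pot test, sandy loam; weeds sprayed post-emergence at one-leaf stage (2–3 weeks after sowing) with WP or EC formulation plus 0.5% additive, 600 l/ha water. Visual rating after about 3 weeks versus untreated controls, 100% = plants dead, 0% = like control.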

[11] = system: ALOMY; experiment: Pre-emergence action at 320 g/ha against ALOMY; format: in vivo, Alopecurus myosuroides; conditions: scored visually after about 3 weeks vs untreated controls (100% = plants have died)
Summary of the method: as §2

[12] = system: POAAN; experiment: Post-emergence action against POAAN, 1.28 kg/ha; format: in vivo, Poa annua; conditions: dosage 1280 g/ha, visual rating about 3 weeks after treatment vs untreated controls
Summary of the method: as §3

[13] = system: ECHCG; experiment: Post-emergence action against ECHCG, 1.28 kg/ha; format: in vivo, Echinochloa crus-galli; conditions: dosage 1280 g/ha, visual rating about 3 weeks after treatment vs untreated controls
Summary of the method: as §3

[14] = system: MATIN; experiment: Pre-emergence action against MATIN, 1280 g/ha; format: in vivo, Tripleurospermum inodorum (Matricaria inodora); conditions: scored visually after about 3 weeks vs untreated controls (100% = plants have died)
Summary of the method: as §1

[15] = system: VERPE; experiment: Post-emergence action against VERPE, 1.28 kg/ha; format: in vivo, Veronica persica; conditions: dosage 1280 g/ha, visual rating about 3 weeks after treatment vs untreated controls (100% = plants died)
Summary of the method: as §3

[16] = system: DIGSA; experiment: Pre-emergence action at 320 g/ha against DIGSA; format: in vivo, Digitaria sanguinalis; conditions: visual scoring after about 3 weeks vs untreated controls
Summary of the method: as §2

[17] = system: AMARE; experiment: Post-emergence action against AMARE, 1.28 kg/ha; format: in vivo, Amaranthus retroflexus; conditions: dosage 1280 g/ha, visual rating about 3 weeks after treatment vs untreated controls (100% = plants died)
Summary of the method: as §3

[18] = system: ABUTH; experiment: Post-emergence action against ABUTH, 1.28 kg/ha; format: in vivo, Abutilon theophrasti; conditions: dosage 1280 g/ha, visual rating about 3 weeks after treatment vs untreated controls (100% = plants died)
Summary of the method: as §3

[19] = system: ABUTH; experiment: Pre-emergence action at 320 g/ha against ABUTH; format: in vivo, Abutilon theophrasti; conditions: greenhouse, scored visually after about 3 weeks vs untreated controls, 100% = plants have died, 0% = like control plants
From the text: b) Seeds of monocotyledonous and dicotyledonous weed plants and crop plants are placed in plastic or organic planting pots and covered with soil. The compounds of the invention, formulated in the form of wettable powders (WP) or as emulsion concentrates (EC), are then applied onto the surface of the covering soil as aqueous suspension or emulsion with addition of 0.5% additive at a water application rate of 600 l/ha (converted). After the treatment, the pots are placed in a greenhouse and kept under good growth conditions for the trial plants. After about 3 weeks, the effect of the preparations is scored visually in comparison with untreated controls as percentages. For example, 100% activity=the plants have died, 0% activity=like control plants. Tables 13 to 26 below show the effects of selected compounds of the general formula (I) on various harmful plants and at an application rate corresponding to 320 g/ha, which were obtained by the experimental procedure mentioned above.

[20] = system: KCHSC; experiment: Pre-emergence action against KCHSC, 1280 g/ha; format: in vivo, Bassia scoparia; conditions: scored visually after about 3 weeks vs untreated controls (100% = plants have died)
Summary of the method: as §1

[21] = system: DIGSA; experiment: Post-emergence action against DIGSA, 1.28 kg/ha; format: in vivo, Digitaria sanguinalis; conditions: dosage 1280 g/ha, visual rating about 3 weeks after treatment vs untreated controls
Summary of the method: as §3

[22] = system: MATIN; experiment: Post-emergence action against MATIN, 1.28 kg/ha; format: in vivo, Tripleurospermum inodorum (Matricaria inodora); conditions: dosage 1280 g/ha, visual rating about 3 weeks after treatment vs untreated controls (100% = plants died)
Summary of the method: as §3

[23] = system: ABUTH; experiment: Pre-emergence action against ABUTH, 1280 g/ha; format: in vivo, Abutilon theophrasti; conditions: scored visually after about 3 weeks vs untreated controls (100% = plants have died)
Summary of the method: as §1

[24] = system: VIOTR; experiment: Pre-emergence action at 320 g/ha against VIOTR; format: in vivo, Viola tricolor; conditions: dosage 320 g/ha
Summary of the method: as §2

[25] = system: VERPE; experiment: Pre-emergence action at 320 g/ha against VERPE; format: in vivo, Veronica persica; conditions: visual scoring after about 3 weeks vs untreated controls
Summary of the method: as §2

[26] = system: ALOMY; experiment: Pre-emergence action against ALOMY, 1280 g/ha; format: in vivo, Alopecurus myosuroides; conditions: visual scoring after about 3 weeks vs untreated controls, 100% = plants have died, 0% = like control plants
Summary of the method: as §1

[27] = system: ALOMY; experiment: Post-emergence action against ALOMY, 1.28 kg/ha; format: in vivo, Alopecurus myosuroides; conditions: dosage 1280 g/ha, visual rating about 3 weeks after treatment vs untreated controls
Summary of the method: as §3

[28] = system: LOLRI; experiment: Pre-emergence action at 320 g/ha against LOLRI; format: in vivo, Lolium rigidum; conditions: visual scoring after about 3 weeks vs untreated controls
Summary of the method: as §2

[29] = system: POLCO; experiment: Pre-emergence action at 320 g/ha against POLCO; format: in vivo, Fallopia convolvulus (Polygonum convolvulus); conditions: visual scoring after about 3 weeks vs untreated controls
Summary of the method: as §2

[30] = system: STEME; experiment: Post-emergence action against STEME, 1.28 kg/ha; format: in vivo, Stellaria media; conditions: dosage 1280 g/ha, visual rating about 3 weeks after treatment vs untreated controls (100% = plants died)
Summary of the method: as §3

[31] = system: LOLRI; experiment: Post-emergence action against LOLRI, 1.28 kg/ha; format: in vivo, Lolium rigidum; conditions: dosage 1280 g/ha, visual rating about 3 weeks after treatment vs untreated controls
Summary of the method: as §3

[32] = system: VERPE; experiment: Pre-emergence action against VERPE, 1280 g/ha; format: in vivo, Veronica persica; conditions: scored visually after about 3 weeks vs untreated controls (100% = plants have died)
Summary of the method: as §1

[33] = system: AMARE; experiment: Pre-emergence action against AMARE, 1280 g/ha; format: in vivo, Amaranthus retroflexus; conditions: scored visually after about 3 weeks vs untreated controls (100% = plants have died)
Summary of the method: as §1

[34] = system: ECHCG; experiment: Pre-emergence action against ECHCG, 1280 g/ha; format: in vivo, Echinochloa crus-galli; conditions: visual scoring after about 3 weeks vs untreated controls, 100% = plants have died, 0% = like control plants
Summary of the method: as §1

[35] = system: POAAN; experiment: Pre-emergence action against POAAN, 1280 g/ha; format: in vivo, Poa annua; conditions: visual scoring after about 3 weeks vs untreated controls, 100% = plants have died, 0% = like control plants
Summary of the method: as §1

Question: `C[C@@H](Oc1nn(-c2ccccc2F)c(-c2cncnc2)c1Cl)C(=O)O` [VI-018] was tested. Which “Pre-emergence action against LOLRI” value [1] did it give?
Answer: 100%

Question: What about the “Pre-emergence action against PHBPU in %” value [2] of the same molecule?
Answer: 90%

Question: What about the “Pre-emergence action against MATIN in %” value [3] of the same molecule?
Answer: 90%

Question: What about the “Pre-emergence action against SETVI” value [4] of the same molecule?
Answer: 100%

Question: And the “Pre-emergence action against AMARE in %” value [5]?
Answer: 100%

Question: What about the “Pre-emergence action against STEME” value [6] of the same molecule?
Answer: 100%

Question: What about the “Pre-emergence action against SETVI in %” value [7] of the same molecule?
Answer: 100%

Question: And the “Pre-emergence action against DIGSA” value [8]?
Answer: 100%

Question: And the “Pre-emergence action against AVEFA in %” value [9]?
Answer: 80%

Question: What about the “Post-emergence action against KCHSC” value [10] of the same molecule?
Answer: 90%

Question: What about the “Pre-emergence action at 320 g/ha against ALOMY in %” value [11] of the same molecule?
Answer: 100%

Question: What about the “Post-emergence action against POAAN” value [12] of the same molecule?
Answer: 100%

Question: What about the “Post-emergence action against ECHCG” value [13] of the same molecule?
Answer: 100%

Question: And the “Pre-emergence action against MATIN” value [14]?
Answer: 100%

Question: What about the “Post-emergence action against VERPE” value [15] of the same molecule?
Answer: 100%

Question: What about the “Pre-emergence action against DIGSA in %” value [16] of the same molecule?
Answer: 100%

Question: And the “Post-emergence action against AMARE” value [17]?
Answer: 90%

Question: What about the “Post-emergence action against ABUTH” value [18] of the same molecule?
Answer: 90%

Question: And the “Pre-emergence action at 320 g/ha against ABUTH in %” value [19]?
Answer: 80%

Question: And the “Pre-emergence action against KCHSC” value [20]?
Answer: 100%

Question: And the “Post-emergence action against DIGSA” value [21]?
Answer: 100%

Question: What about the “Post-emergence action against MATIN” value [22] of the same molecule?
Answer: 100%

Question: And the “Pre-emergence action against ABUTH” value [23]?
Answer: 90%

Question: What about the “Pre-emergence action against VIOTR in %” value [24] of the same molecule?
Answer: 90%

Question: What about the “Pre-emergence action against VERPE in %” value [25] of the same molecule?
Answer: 80%

Question: And the “Pre-emergence action against ALOMY” value [26]?
Answer: 100%

Question: What about the “Post-emergence action against ALOMY” value [27] of the same molecule?
Answer: 100%

Question: And the “Pre-emergence action against LOLRI in %” value [28]?
Answer: 100%

Question: What about the “Pre-emergence action against POLCO in %” value [29] of the same molecule?
Answer: 90%

Question: What about the “Post-emergence action against STEME” value [30] of the same molecule?
Answer: 90%

Question: And the “Post-emergence action against LOLRI” value [31]?
Answer: 90%

Question: What about the “Pre-emergence action against VERPE” value [32] of the same molecule?
Answer: 100%

Question: And the “Pre-emergence action against AMARE” value [33]?
Answer: 100%

Question: And the “Pre-emergence action against ECHCG” value [34]?
Answer: 100%

Question: And the “Pre-emergence action against POAAN” value [35]?
Answer: 100%
